Entries after “also recorded” stand apart in the source; their conditions may differ. No end group written: not given here.
Experiments:
[1] = test system: A549; assay: PCD induction in cancer cell lines, Annexin V labeling; format: cell-based; details: A549 (Lung carcinoma), 400 μM 4N1K, 1 h
Description: (§1) We used Annexin V-FITC (BD Biosciences) for the assessment of phosphatidylserine (PS) exposure. Data analysis was carried out in a FACSCanto II (BD Biosciences) on the total cell population (10,000 cells). Data were analyzed using FlowJo software (TreeStar).

[2] = test system: AU-565; assay: as above; format: cell-based; details: AU-565 (Breast adenocarcinoma), 400 μM 4N1K, 1 h
Description: as §1

[3] = test system: CEM; assay: as above; format: cell-based; details: CEM (Acute lymphoblastic leukemia), 400 μM 4N1K, 1 h
Description: as §1

[4] = test system: HBL-100; assay: as above; format: cell-based; details: HBL-100 (Breast epithelial cells with transformed morphology), 400 μM 4N1K, 1 h
Description: as §1

[5] = test system: HELA; assay: as above; format: cell-based; details: HELA (Cervical cancer), 400 μM 4N1K, 1 h
Description: as §1

[6] = test system: JM-1; assay: as above; format: cell-based; details: JM-1 (Immunoblastic B cell lymphoma), 400 μM 4N1K, 1 h
Description: as §1

[7] = test system: JURKAT; assay: as above; format: cell-based; details: JURKAT (Acute T cell leukemia), 400 μM 4N1K, 1 h
Description: as §1

[8] = test system: LNCAP; assay: as above; format: cell-based; details: LNCAP (Prostate cancer), 400 μM 4N1K, 1 h
Description: as §1

[9] = test system: MCF-7; assay: as above; format: cell-based; details: MCF-7 (Breast adenocarcinoma), 400 μM 4N1K, 1 h
Description: as §1

[10] = test system: MDA-MB-231; assay: as above; format: cell-based; details: MDA-MB-231 (Adenocarcinoma), 400 μM 4N1K, 1 h
Description: as §1

[11] = test system: MEC-1; assay: as above; format: cell-based; details: MEC-1 (Chronic Lymphocytic Leukemia), 400 μM 4N1K, 1 h
Description: as §1

[12] = test system: OV10; assay: as above; format: cell-based; details: OV10 (Ovarian Carcinoma), 400 μM 4N1K, 1 h
Description: as §1

[13] = test system: RAJI; assay: as above; format: cell-based; details: RAJI (Burkitt's lymphoma), 400 μM 4N1K, 1 h
Description: as §1

[14] = test system: RAMOS; assay: as above; format: cell-based; details: RAMOS (Burkitt's lymphoma), 400 μM 4N1K, 1 h
Description: as §1

[15] = test system: RPMI 8226; assay: as above; format: cell-based; details: RPMI 8226 (B lymphocytic cell line), 400 μM 4N1K, 1 h
Description: as §1

[16] = test system: RPMI 8866; assay: as above; format: cell-based; details: RPMI 8866 (B lymphocytic cell line), 400 μM 4N1K, 1 h
Description: as §1

[17] = test system: U937; assay: as above; format: cell-based; details: U937 (Diffuse histiocytic lymphoma), 400 μM 4N1K, 1 h
Description: as §1

[18] = test system: Ovarian carcinoma; assay: PCD induction in primary cancer cells; format: cell-based
[19] = test system: Breast carcinoma; assay: PCD induction in primary cancer cells; format: cell-based
[20] = test system: Colon carcinoma; assay: PCD induction in primary cancer cells; format: cell-based
[21] = test system: Bladder carcinoma; assay: PCD induction in primary cancer cells; format: cell-based
[22] = test system: Glioblastoma; assay: PCD induction in primary cancer cells; format: cell-based
[23] = test system: Hepatocellular carcinoma; assay: PCD induction in primary cancer cells; format: cell-based
[24] = test system: Prostate tumor cells; assay: PCD induction in primary cancer cells; format: cell-based
[25] = test system: Glioma; assay: PCD induction in primary cancer cells; format: cell-based
[26] = test system: Follicular lymphoma; assay: PCD induction in primary cancer cells; format: cell-based
[27] = test system: Mantle cell lymphoma; assay: PCD induction in primary cancer cells; format: cell-based
[28] = test system: Diffuse large B cell lymphoma; assay: PCD induction in primary cancer cells; format: cell-based
[29] = test system: Chronic Lymphocytic Leukemia; assay: PCD induction in primary cancer cells; format: cell-based
[30] = test system: Marginal B cell lymphoma; assay: PCD induction in primary cancer cells; format: cell-based
[31] = test system: Lymphoplasmacytic lymphoma; assay: PCD induction in primary cancer cells; format: cell-based
[32] = test system: Hairy cell leucemia (HCL); assay: PCD induction in primary cancer cells; format: cell-based
[33] = test system: Acute T cell leukemia; assay: PCD induction in primary cancer cells; format: cell-based
[34] = test system: cancer cell lines; assay: PCD induction in cancer cell lines (whole panel of Table 1); format: cell-based; details: cancer cell lines (Table 1)
Description: as §1

[35] = test system: primary cancer cells; assay: PCD induction in primary cancer cells (whole panel of Table 2); format: cell-based; details: primary cancer cells (Table 2)
[36] = test system: B cells isolated from CLL patients; assay: PCD (phosphatidylserine exposure, Annexin-V-FITC, flow cytometry) in B cells from CLL patients; format: cell-based, human
Source text: (§2) After authorized consent forms fresh blood samples will be collected from CLL patients diagnosed according to classical morphological and immunophenotypic criteria at Pitié-Salpêtrière Hospital (Service d'Hématologie Biologique). Normal B lymphocytes will be obtained from EFS (Etablisement Français du Sang). The Institutional Ethics Committee at Pitie-Salpetriere Hospital approved the present study. Mononuclear cells were purified from blood samples using a standard Ficoll-Hypaque gradient, and B cells were positively or negatively selected by magnetic beads coupled to anti-CD19 monoclonal antibody (positive selection) or to anti-CD16, CD3, and CD14 monoclonal antibodies (negative depletion) (Miltenyi Biotech). No changes were found in the cell death response of positively or negatively selected cells. Purified B-lymphocytes were cultured in complete medium (RPMI 1640 medium supplemented with 10% fetal calf serum, 2 mM L-glutamine, and 100 U/ml penicillin-streptomycin). Unless specified, reagents were from Sigma-Aldrich.
To induce cell death B-lymphocytes were cultured 1 h with the TSP-1 derived peptide 4N1K (300 μM; sequence KRFYVVMWKK, SEQ ID NO:1), the negative control peptide 4NGG (300 μM; sequence KRFYGGMWKK, SEQ ID NO:2), the newly developed peptide PKHB1 (150 μM; sequence (D)K-R-F-Y-[…]-M-W-(D)K) (formula I) or an anti-CD47 mAb (in soluble conditions or in immobilized precoated plates; 5 μg/ml; clone B6H12). Alternatively, B-cells were pre-treated for 30 min before the induction of cell death with the calcium chelator BAPTA-AM (20 μM), the caspase-inhibitor Z-VAD.fmk (50 μM).
as §1

[37] = test system: normal B-lymphocytes; assay: PCD (Annexin-V-FITC) in normal B-lymphocytes; format: cell-based, human
Source text: as §2, with “Sigma-Aldrich. […]” for “Sigma-Aldrich.”
We used Annexin V-FITC (BD Biosciences) for the assessment of phosphatidylserine (PS) exposure. […] Data were analyzed using FlowJo software (TreeStar).

[38] = test system: B cells from CLL patients; assay: Free Ca2+ mobilization, Fura-2 AM, Till photonics; format: cell-based, human; details: Fura-2 AM (FIG. 4)
Description: Cells, adhered in Polylysine coated glass-bottom Petri dishes, were loaded with Fura-2 AM (1 μM/30 min/37° C.). Cells were then excited by wavelengths of 340 and 380 nm and fluorescence emission of several cells was simultaneously recorded at 510 nm at a frequency of 1 Hz using a dual excitation fluorometric imaging system (TILL-Photonics) controlled by TILL-Vision software. Signals were computed into relative ratio units of the fluorescence intensity of the different wavelengths (340/380 nm). Individual fluorescence values were then analyzed with Origin software to normalize the fluorescence with the first value according to the equation (F/F0)−1, where ‘F’ is the fluorescence at specific time point and ‘F0’ is the fluorescence at time 0.

KRFYVVMWKK [4N1K, K-R-F-Y-V-V-M-W-K-K]
Cell death induction via CD47 [1]: + (more than 35% of cell death induction, assessed by Annexin V labeling, after 1 h of stimulation with 400 μM of 4N1K (means of six independent experiments)) | Cell death induction via CD47 [2]: + (more than 35% of cell death induction, assessed by Annexin V labeling, after 1 h of stimulation with 400 μM of 4N1K (means of six independent experiments)) | Cell death induction via CD47 [3]: + (more than 35% of cell death induction, assessed by Annexin V labeling, after 1 h of stimulation with 400 μM of 4N1K (means of six independent experiments)) | Cell death induction via CD47 [4]: + (more than 35% of cell death induction, assessed by Annexin V labeling, after 1 h of stimulation with 400 μM of 4N1K (means of six independent experiments)) | Cell death induction via CD47 [5]: + (more than 35% of cell death induction, assessed by Annexin V labeling, after 1 h of stimulation with 400 μM of 4N1K (means of six independent experiments)) | Cell death induction via CD47 [6]: + (more than 35% of cell death induction, assessed by Annexin V labeling, after 1 h of stimulation with 400 μM of 4N1K (means of six independent experiments)) | Cell death induction via CD47 [7]: + (more than 35% of cell death induction, assessed by Annexin V labeling, after 1 h of stimulation with 400 μM of 4N1K (means of six independent experiments)) | Cell death induction via CD47 [8]: + (more than 35% of cell death induction, assessed by Annexin V labeling, after 1 h of stimulation with 400 μM of 4N1K (means of six independent experiments)) | Cell death induction via CD47 [9]: + (more than 35% of cell death induction, assessed by Annexin V labeling, after 1 h of stimulation with 400 μM of 4N1K (means of six independent experiments)) | Cell death induction via CD47 [10]: + (more than 35% of cell death induction, assessed by Annexin V labeling, after 1 h of stimulation with 400 μM of 4N1K (means of six independent experiments)) | Cell death induction via CD47 [11]: + (more than 35% of cell death induction, assessed by Annexin V labeling, after 1 h of stimulation with 400 μM of 4N1K (means of six independent experiments)) | Cell death induction via CD47 [12]: + (more than 35% of cell death induction, assessed by Annexin V labeling, after 1 h of stimulation with 400 μM of 4N1K (means of six independent experiments)) | Cell death induction via CD47 [13]: + (more than 35% of cell death induction, assessed by Annexin V labeling, after 1 h of stimulation with 400 μM of 4N1K (means of six independent experiments)) | Cell death induction via CD47 [14]: + (more than 35% of cell death induction, assessed by Annexin V labeling, after 1 h of stimulation with 400 μM of 4N1K (means of six independent experiments)) | Cell death induction via CD47 [15]: + (more than 35% of cell death induction, assessed by Annexin V labeling, after 1 h of stimulation with 400 μM of 4N1K (means of six independent experiments)) | Cell death induction via CD47 [16]: + (more than 35% of cell death induction, assessed by Annexin V labeling, after 1 h of stimulation with 400 μM of 4N1K (means of six independent experiments)) | Cell death induction via CD47 [17]: + (more than 35% of cell death induction, assessed by Annexin V labeling, after 1 h of stimulation with 400 μM of 4N1K (means of six independent experiments)) | Cell death induction via CD47 [18]: + (more than 35% of programmed cell death induction via CD47 receptor) | Cell death induction via CD47 [19]: + (more than 35% of programmed cell death induction via CD47 receptor) | Cell death induction via CD47 [20]: + (more than 35% of programmed cell death induction via CD47 receptor) | Cell death induction via CD47 [21]: + (more than 35% of programmed cell death induction via CD47 receptor) | Cell death induction via CD47 [22]: + (more than 35% of programmed cell death induction via CD47 receptor) | Cell death induction via CD47 [23]: + (more than 35% of programmed cell death induction via CD47 receptor) | Cell death induction via CD47 [24]: + (more than 35% of programmed cell death induction via CD47 receptor) | Cell death induction via CD47 [25]: + (more than 35% of programmed cell death induction via CD47 receptor) | Cell death induction via CD47 [26]: + (more than 35% of programmed cell death induction via CD47 receptor) | Cell death induction via CD47 [27]: + (more than 35% of programmed cell death induction via CD47 receptor) | Cell death induction via CD47 [28]: + (more than 35% of programmed cell death induction via CD47 receptor) | Cell death induction via CD47 [29]: + (more than 35% of programmed cell death induction via CD47 receptor) | Cell death induction via CD47 [30]: + (more than 35% of programmed cell death induction via CD47 receptor) | Cell death induction via CD47 [31]: + (more than 35% of programmed cell death induction via CD47 receptor) | Cell death induction via CD47 [32]: + (more than 35% of programmed cell death induction via CD47 receptor) | Cell death induction via CD47 [33]: + (more than 35% of programmed cell death induction via CD47 receptor) | cell death induction [34]: more than 35% | cell death induction [35]: more than 35% | difference in PCD response between CLL cells with functional and non-functional TP53 ([36]; 300 μM, 1 h (FIG. 2B)): Not significant difference | cell death in CLL cells ([36]; 300 μM, 1 h, Annexin-V-FITC, cohort of 14 CLL patients (FIG. 6B)): about 45% | difference in PCD between CLL cells treated or not with caspase inhibitor ZVAD ([36]; 300 μM, 1 h, z-VAD.fmk 50 μM pre-incubation (FIG. 2A)): Not significant difference | effect of pre-treatment with calcium chelator BAPTA-AM on peptide-mediated PCD ([36]; BAPTA-AM 20 μM before PCD induction (FIG. 5, FIG. 6D)): abrogates | PCD induction in CLL primary cells (in words) ([36]; soluble peptide or mAb (FIG. 1)): induces caspase-independent PCD | cytotoxicity in normal B-lymphocytes [37]: not in normal B-lymphocytes | intracellular free Ca2+ mobilization [38]: does not come back to basal level; also recorded: potent and sustained increase of calcium mobilization
